Experiment [1] deals with T1, Procollagen-lysine,2-oxoglutarate 5-dioxygenase 2 (Homo sapiens, UniProt O00469).
T1 sequence (O00469 whole entry): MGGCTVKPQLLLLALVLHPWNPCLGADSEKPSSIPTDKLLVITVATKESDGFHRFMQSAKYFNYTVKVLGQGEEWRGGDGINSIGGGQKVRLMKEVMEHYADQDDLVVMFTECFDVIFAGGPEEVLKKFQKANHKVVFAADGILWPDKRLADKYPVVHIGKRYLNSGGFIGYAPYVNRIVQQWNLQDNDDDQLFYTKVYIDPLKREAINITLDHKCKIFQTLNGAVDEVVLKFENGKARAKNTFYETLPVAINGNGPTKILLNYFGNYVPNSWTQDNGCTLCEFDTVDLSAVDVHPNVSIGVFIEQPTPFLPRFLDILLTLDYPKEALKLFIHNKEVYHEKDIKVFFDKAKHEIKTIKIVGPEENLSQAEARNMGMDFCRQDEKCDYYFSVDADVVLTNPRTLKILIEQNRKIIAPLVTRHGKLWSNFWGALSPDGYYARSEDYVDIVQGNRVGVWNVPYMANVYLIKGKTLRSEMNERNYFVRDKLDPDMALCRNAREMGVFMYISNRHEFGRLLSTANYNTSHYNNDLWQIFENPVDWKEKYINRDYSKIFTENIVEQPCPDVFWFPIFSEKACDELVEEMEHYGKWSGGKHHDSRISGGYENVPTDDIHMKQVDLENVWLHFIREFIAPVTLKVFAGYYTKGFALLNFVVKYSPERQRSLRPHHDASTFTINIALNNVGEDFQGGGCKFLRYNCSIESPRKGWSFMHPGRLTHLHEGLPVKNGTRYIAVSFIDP
The experiment is described as follows: Inhibition of human recombinant LH2 expressed in CHO cells incubated for 30 mins by luciferase-based Succinate-GloTM JmjC Demethylase/Hydroxylase Assay. Type of experiment: cell-based.

In experiment [2] the target is T2, Lysine-specific demethylase 4A (Homo sapiens) (UniProt O75164).
T2 sequence (whole entry): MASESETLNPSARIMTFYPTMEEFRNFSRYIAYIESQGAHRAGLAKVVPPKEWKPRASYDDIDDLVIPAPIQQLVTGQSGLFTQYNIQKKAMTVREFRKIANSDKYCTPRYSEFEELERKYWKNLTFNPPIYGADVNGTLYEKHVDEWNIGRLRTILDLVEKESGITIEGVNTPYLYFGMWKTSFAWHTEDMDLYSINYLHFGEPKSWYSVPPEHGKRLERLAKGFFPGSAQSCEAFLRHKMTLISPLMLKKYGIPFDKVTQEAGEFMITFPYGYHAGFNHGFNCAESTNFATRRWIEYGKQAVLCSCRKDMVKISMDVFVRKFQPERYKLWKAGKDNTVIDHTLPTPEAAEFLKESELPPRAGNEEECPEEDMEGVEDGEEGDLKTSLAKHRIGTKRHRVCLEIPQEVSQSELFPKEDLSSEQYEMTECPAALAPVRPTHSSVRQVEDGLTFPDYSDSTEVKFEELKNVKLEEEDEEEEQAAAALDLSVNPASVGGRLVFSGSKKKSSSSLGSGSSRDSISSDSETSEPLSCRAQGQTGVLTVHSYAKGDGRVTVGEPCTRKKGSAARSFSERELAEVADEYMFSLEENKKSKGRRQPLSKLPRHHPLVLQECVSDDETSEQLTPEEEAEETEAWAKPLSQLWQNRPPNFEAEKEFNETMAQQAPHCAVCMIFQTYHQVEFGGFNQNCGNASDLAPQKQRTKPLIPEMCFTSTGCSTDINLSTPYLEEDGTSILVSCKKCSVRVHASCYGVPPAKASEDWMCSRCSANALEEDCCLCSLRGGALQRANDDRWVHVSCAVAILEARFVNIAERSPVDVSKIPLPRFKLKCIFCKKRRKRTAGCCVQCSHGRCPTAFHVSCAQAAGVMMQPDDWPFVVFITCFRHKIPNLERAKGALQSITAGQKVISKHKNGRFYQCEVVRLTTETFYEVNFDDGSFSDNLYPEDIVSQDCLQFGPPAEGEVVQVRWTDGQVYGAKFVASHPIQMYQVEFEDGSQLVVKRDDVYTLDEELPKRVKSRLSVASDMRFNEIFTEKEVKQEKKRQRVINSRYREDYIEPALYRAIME
The experiment is described as follows: Inhibition of JMJD2A (unknown origin) at 11 uM by Succinate-Glo kit assay.

In experiment [3] the target is T3, Procollagen-lysine,2-oxoglutarate 5-dioxygenase 1 (Homo sapiens, UniProt Q02809).
T3 sequence (Q02809 whole entry): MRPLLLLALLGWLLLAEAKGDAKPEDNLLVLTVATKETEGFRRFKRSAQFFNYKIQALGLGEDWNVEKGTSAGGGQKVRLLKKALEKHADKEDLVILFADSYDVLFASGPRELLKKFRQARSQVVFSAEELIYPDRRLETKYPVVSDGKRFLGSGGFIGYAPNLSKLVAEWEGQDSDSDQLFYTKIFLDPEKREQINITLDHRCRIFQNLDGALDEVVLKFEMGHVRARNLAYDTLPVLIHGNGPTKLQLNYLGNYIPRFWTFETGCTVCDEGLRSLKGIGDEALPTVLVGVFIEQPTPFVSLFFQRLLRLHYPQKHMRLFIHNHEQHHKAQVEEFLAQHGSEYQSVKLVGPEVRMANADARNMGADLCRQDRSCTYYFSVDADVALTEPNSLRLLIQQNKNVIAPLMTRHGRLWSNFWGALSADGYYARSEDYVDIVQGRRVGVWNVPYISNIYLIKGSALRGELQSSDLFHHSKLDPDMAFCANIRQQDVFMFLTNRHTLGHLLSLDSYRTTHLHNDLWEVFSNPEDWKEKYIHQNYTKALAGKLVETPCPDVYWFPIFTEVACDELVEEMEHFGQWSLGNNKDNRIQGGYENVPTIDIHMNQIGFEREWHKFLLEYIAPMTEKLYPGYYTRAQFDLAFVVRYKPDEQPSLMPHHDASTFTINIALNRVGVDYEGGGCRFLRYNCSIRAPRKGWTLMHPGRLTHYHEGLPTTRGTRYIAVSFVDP
The experiment is described as follows: Inhibition of human recombinant LH1 expressed in CHO cells incubated for 30 mins by luciferase-based Succinate-GloTM JmjC Demethylase/Hydroxylase Assay. Format: cell-based.

The species entered for experiment [4] is Homo sapiens. The experiment is described as follows: Selectivity ratio of IC50 for inhibition of human recombinant LH3 to IC50 for inhibition of human recombinant LH2.
The target in experiment [5] is T4, Multifunctional procollagen lysine hydroxylase and glycosyltransferase LH3 (Homo sapiens, UniProt O60568).
T4 sequence (O60568 whole entry): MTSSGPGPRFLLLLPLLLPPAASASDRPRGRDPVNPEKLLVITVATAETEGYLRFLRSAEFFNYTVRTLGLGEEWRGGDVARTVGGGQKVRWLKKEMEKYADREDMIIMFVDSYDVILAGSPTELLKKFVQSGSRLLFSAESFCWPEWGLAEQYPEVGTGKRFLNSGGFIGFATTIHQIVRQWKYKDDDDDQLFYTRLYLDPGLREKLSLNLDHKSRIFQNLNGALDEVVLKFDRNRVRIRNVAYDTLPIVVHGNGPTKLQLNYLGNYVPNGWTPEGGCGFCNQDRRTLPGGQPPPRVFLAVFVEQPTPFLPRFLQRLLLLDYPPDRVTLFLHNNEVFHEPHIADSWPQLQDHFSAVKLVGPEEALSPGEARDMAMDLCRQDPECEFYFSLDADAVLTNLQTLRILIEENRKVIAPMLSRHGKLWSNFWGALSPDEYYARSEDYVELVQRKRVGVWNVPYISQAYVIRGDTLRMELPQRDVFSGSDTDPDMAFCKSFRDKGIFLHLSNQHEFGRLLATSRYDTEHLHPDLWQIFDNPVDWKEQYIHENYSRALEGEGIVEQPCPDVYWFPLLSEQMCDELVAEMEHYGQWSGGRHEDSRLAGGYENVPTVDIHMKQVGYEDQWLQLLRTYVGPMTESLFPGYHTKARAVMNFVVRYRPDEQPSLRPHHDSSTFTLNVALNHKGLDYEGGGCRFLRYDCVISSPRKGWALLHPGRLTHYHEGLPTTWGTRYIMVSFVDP
The experiment is described as follows: Inhibition of human recombinant LH3 expressed in CHO cells incubated for 30 mins by luciferase-based Succinate-GloTM JmjC Demethylase/Hydroxylase Assay. Format: cell-based.

Experiment [6] is filed under the species Homo sapiens. As to the kind of experiment: Selectivity ratio of IC50 for inhibition of human recombinant LH1 to IC50 for inhibition of human recombinant LH2. Particulars: time 30.0 min.
The test system of the next experiment is 344SQ. As to the kind of experiment: Antiproliferative activity against mouse wild type 344SQ cells assessed as reduction in cell viability observed after 48 hrs by CCK-8 assay. Format: functional, cell-based.

Active and inactive are the calls of the source. No cut-off for these calls is given here.

For orientation: IC50 means the concentration that inhibits the measured activity by half.

Turning to `O=C(CC(=O)c1cccnc1)c1ccccc1`, the concentration for half-maximal inhibition (IC50) in experiment [1] (read-out: IC50) was 5 µM. As for `CN1CCN(c2cccc(C(=O)CC(=O)c3nnn[nH]3)c2)CC1`, in experiment [1] (read-out: IC50), the concentration for half-maximal inhibition (IC50) is greater than 10 µM. Turning to `Cc1ccc(C(=O)CC(=O)c2cccc(N3CCOCC3)c2)cc1`, the IC50 result in experiment [1] (cho) was “Not Active”.

As for `O=C(c1cccnc1)C1CCc2cc(Cl)ccc2C1=O` (stereo not drawn), in experiment [1] (cho), the IC50 entry is recorded as “Not Active”. Consider `O=C(CC(=O)C(F)(F)F)c1ccc([N+](=O)[O-])cc1`, for which the IC50 in experiment [1] (read-out: IC50) is greater than 10 µM. Take `O=C(CC(=O)c1nnn[nH]1)c1cccc(N2CCOCC2)c1`: the IC50 in experiment [1] (read-out: IC50) is greater than 10 µM. On the same count and under the same terms, in the case of `CN1CCN(c2cccc(-c3cc(-c4ccncc4)n[nH]3)c2)CC1` it was greater than 10 µM. As for `O=C(CC(=O)c1ccncc1)c1ccccc1`, the inhibition entry in experiment [2] is “Active”. In addition, the IC50 in experiment [3] was 6.4 µM; in experiment [5], 5.2 µM; in experiment [1] (read-out: IC50) it was 1 µM. Further, the Selectivity ratio in the experiment filed under Homo sapiens [4] came to 5; in the experiment listed under Homo sapiens [6], 6. For the compound `c1cc(-c2cc(-c3ccncc3)n[nH]2)cc(N2CCOCC2)c1`, the IC50 in experiment [1] (read-out: IC50) is greater than 10 µM.

As to `O=C(CC(=O)c1cccnc1)c1ccc([N+](=O)[O-])cc1`, in experiment [1] (read-out: IC50), the 50% inhibitory concentration (IC50) is greater than 10 µM. `CN1CCN(c2cccc(C(=O)CC(=O)c3ccncc3)c2)CC1`: the result in the experiment on 344SQ was inactive. Consider `O=C(CC(=O)c1cccnc1)c1ccc(C(F)(F)F)cc1`, for which, in experiment [1] (cho), the IC50 result is “Not Active”. With `O=C(c1cccnc1)C1CCc2cc(F)ccc2C1=O` (stereo not drawn), the IC50 in experiment [1] (read-out: IC50) is greater than 10 µM.
